Assay results as given in article PMC5072426, “Inhibition of cathepsin B by caspase-3 inhibitors blocks programmed cell death in Arabidopsis” (Cell Death and Differentiation, 2016).
Peptide text beside a SMILES is read from it.

Molecular target: T1, recombinant AtCathB3 (Arabidopsis cathepsin B3) (Arabidopsis thaliana, UniProt Q94K85)
T1 construct: gene CATHB3; 25-residue signal peptide removed; N-terminal cherrytag (11 kDa), C-terminal 6xHis; secreted from baculovirus-infected insect cells (Sf9/Hi-5); N-glycosylated
T1 sequence (Q94K85 26-359): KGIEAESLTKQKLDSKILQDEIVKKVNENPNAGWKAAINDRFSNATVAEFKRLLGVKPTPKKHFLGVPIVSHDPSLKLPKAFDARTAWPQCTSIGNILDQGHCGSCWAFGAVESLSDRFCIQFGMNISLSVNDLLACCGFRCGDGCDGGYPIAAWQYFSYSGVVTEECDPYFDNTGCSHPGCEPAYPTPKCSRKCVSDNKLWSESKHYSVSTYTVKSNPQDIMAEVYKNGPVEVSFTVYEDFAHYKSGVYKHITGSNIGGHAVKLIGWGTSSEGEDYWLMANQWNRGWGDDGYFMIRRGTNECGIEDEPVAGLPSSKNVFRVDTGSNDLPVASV
Assay: fluorogenic DEVDase assay, inhibitor pre-incubated […] min
Type: biochemical

Row | remaining activity at 100 µM [%] | remaining activity at 1000 µM [%] | SMILES
1 | 0 | – | CC(=O)N[C@@H](CC(C)C)C(=O)N[C@H](C(=O)N[C@H](C=O)CCCCN)C(C)C [LVK-CHO, Ac-LVK-CHO] (Ac-Leu-Val-Lys-aldehyde)
2 | 0.3 | – | CC(C)[C@H](NC(=O)[C@H](CCC(=O)O)NC(=O)[C@H](CC(=O)O)NC(=O)OCc1ccccc1)C(=O)N[C@H](C=O)CC(=O)O [DEVD-CHO, Z-DEVD-CHO]
3 | 43.3 ± 0.6 | – | CC(=O)N[C@@H](Cc1ccc(O)cc1)C(=O)N[C@H](C(=O)N[C@@H](C)C(=O)N[C@H](C=O)CC(=O)O)C(C)C [YVAD-CHO, Ac-YVAD-CHO]
4 | – | 0 | CCCNC(=O)[C@H]1O[C@@H]1C(=O)N[C@H](C(=O)N1CCC[C@H]1C(=O)O)[C@@H](C)CC [CA-074]
